The target of test [1] is high affinity nicotinic receptors. The experiment in a line: Inhibition of L-[3H]nicotine binding to mouse brain membrane preparations. Also on record: species or system Mice (DBA strain). The settings on record: mouse brain membranes, 2 hr at 4° C., Ki calculated from IC50 by method of Cheng et al. The protocol:
Mice (DBA strain) were maintained on a 12 hour light/dark cycle and were allowed free access to water and food supplied by Wayne Lab Blox, Madison, WI. Animals used in the present studies were 60 to 90 days of age and weighed 20 to 25 g. Brain membrane preparations were obtained from pooled brain tissue of both males and females.
Mice were killed by cervical dislocation. Brains were removed and placed on an ice-cold platform. The cerebellum was removed and the remaining tissue was placed in 10 volumes (weight:volume) of ice-cold buffer (Krebs-RingersHEPES:NaCl, 118 mM; KCl, 4.8 mM; CaCl2, 2.5 mM; MgSO4, 1.2 mM; HEPES, 20 mM; pH to 7.5 with NaOH) and homogenized with a glass-Teflon tissue grinder. The resulting homogenate was centrifuged at 18000×g for 20 min. and the resulting pellet was resuspended in 20 volumes of water. […] Protein was determined by the method of Lowry, et al., J. Biol. Chem., Vol. 193, pp. 265-275 (1951), using bovine serum albumin as the standard.
The binding of L-[^3 H]nicotine was measured using a modification of the method of Romano, et al., Science, Vol. 210, pp. 647-650 (1980) as described previously by Marks, et al., Mol. Pharmacol., Vol. 30, pp. 427-436 (1986). The binding of L-[^3 H]nicotine was measured using a 2 hr. incubation at 4° C. […] Nonspecific binding was determined by inclusion of 10 μM nonradioactive nicotine in the incubations. […]

For test [2], the system named is synaptosomes from the striatal area of rat brain. The test is described as follows: [3H]-dopamine release from rat striatal synaptosomes. In kind it is biochemical, Sprague-Dawley rats. Conditions: 0.2 ml of 10 μM solution of ligand; relative to equal concentration of (S)-(-)-nicotine. Here is the method: Dopamine release was measured by preparing synaptosomes from the striatal area of rat brain obtained from Sprague-Dawley rats generally according to the procedures set forth by Nagy, et al., J. Neurochem., Vol. 43, pp. 1114-1123 (1984). Striata from 4 rats were homogenized in 2 ml of 0.32M sucrose buffered with 5 mM HEPES (pH 7.5), using a glass-teflon tissue grinder. The homogenate was diluted to 5 ml with additional homogenization solution and centrifuged at 1000×g for 10 min. This procedure was repeated on the new pellet and the resulting supernatant was centrifuged at 12,000×g for 20 min. […] Using this method, 30 to 90 percent of the dopamine was taken up into the synaptosomes, as determined by scintillation counting following filtration through glass fiber filters soaked with 0.5 percent polyethyleneimine. […] After the addition of a 0.2 ml of a 10 μM solution of ligand, the perfusate was collected into scintillation vials at 1 min. intervals and the dopamine released was quantified by scintillation counting. Peaks of radioactivity released above background were summed and the average basal release during that time was subtracted from the total. Release was expressed as a percentage of release obtained with an equal concentration of (S)-(-)-nicotine.

As a reminder, the Ki is the dissociation constant of the complex between target and ligand, obtained from inhibition or displacement. Turning to `CNCCCC(=O)c1cccnc1` [pseudooxynicotine], the Ki in test [1] was 1.7 µM. In addition, the “Dopamine Release, percent release relative to (S)-(-)-nicotine” value in test [2] worked out at 45%.

The values are drawn from US5232932A, “Method for treatment of neurodegenerative diseases” (R. J. Reynolds Tobacco Company, priority 1992, dated 1993).
